Laboratory results published in ChEMBL document CHEMBL3351789, “Triazolopyridines as selective JAK1 inhibitors: from hit identification to GLPG0634” (J Med Chem, 2014).
Active and inactive are the calls of the source. No cut-off for these calls is given here.

Key:
[1] = biological target: Cytochrome P450 2C9 (Homo sapiens, UniProt P11712); assay: Inhibition of CYP2C9 (unknown origin); type: ADME
[2] = Half life in dog at 1 mg/kg, iv; type: ADME, organism-based, Canis lupus familiaris; set-up: dose 1 mg/kg, route intravenous; settings: in vivo
[3] = biological target: Cytochrome P450 2D6 (Homo sapiens, UniProt P10635); assay: Inhibition of CYP2D6 (unknown origin); type: ADME
[4] = Metabolic stability in rat liver microsomes assessed as compound remaining after 60 mins; type: ADME; settings: read-out: Stability
[5] = Kinetic solubility of the compound at pH 7.4; settings: buffer
[6] = biological target: Jak1 protein (Rattus norvegicus, UniProt Q5FVF5); assay: Inhibition of rat JAK1
[7] = Thermodynamic solubility in aqueous buffer solution at pH 7.4; type: physicochemical
[8] = AUC (0 to infinity) in dog at 5 mg/kg, po; type: ADME, organism-based, Canis lupus familiaris; set-up: dose 5 mg/kg, route oral, time infinity; settings: plasma
[9] = Half life in rat at 1 mg/kg, iv; type: ADME, organism-based; set-up: dose 1 mg/kg, route intravenous; settings: in vivo
[10] = Clearance in dog at 1 mg/kg, iv; type: ADME, organism-based, Canis lupus familiaris; set-up: dose 1 mg/kg, route intravenous; settings: in vivo
[11] = AUC (0 to infinity) in rat at 5 mg/kg, po; type: ADME, organism-based; set-up: time infinity, dose 5 mg/kg, route oral; settings: plasma
[12] = Cmax in dog at 1 mg/kg, iv; type: ADME, organism-based, Canis lupus familiaris; set-up: dose 1 mg/kg, route intravenous; settings: in vivo
[13] = Plasma protein binding in dog; type: ADME, cell-free, Canis lupus familiaris; settings: read-out: PPB (converted)
[14] = biological target: Cytochrome P450 1A2 (Homo sapiens, UniProt P05177); assay: Inhibition of CYP1A2 (unknown origin); type: ADME
[15] = Half life in rat hepatocytes; type: ADME, cell-based, Hepatocyte
[16] = Half life in human hepatocytes; type: ADME, cell-based, Hepatocyte
[17] = system: Rattus norvegicus; assay: Antiinflammatory activity in rat collagen-induced arthritis model assessed as reduction in clinical score at 0.1 mg/kg, po measured up to day 15; type: functional, organism-based; set-up: dose 0.1 mg/kg
[18] = Permeability across apical to basolateral side in human Caco2 cells; type: ADME, cell-based; settings: caco-2
[19] = Plasma protein binding in human; type: ADME, cell-free; settings: read-out: PPB (converted)
[20] = AUC (0 to infinity) in rat at 1 mg/kg, iv; type: ADME, organism-based; set-up: time infinity, dose 1 mg/kg, route intravenous; settings: plasma
[21] = system: Rattus norvegicus; assay: Antiinflammatory activity in rat collagen-induced arthritis model assessed as reduction in clinical score at 0.3 mg/kg, po measured up to day 15; type: functional, organism-based; set-up: dose 0.3 mg/kg
[22] = Plasma protein binding in rat
[23] = biological target: Cytochrome P450 2C19 (Homo sapiens, UniProt P33261); assay: Inhibition of CYP2C19 (unknown origin); type: ADME
[24] = system: Rattus norvegicus; assay: Antiinflammatory activity in po dosed rat collagen-induced arthritis model assessed as reduction in clinical score measured up to day 15; type: functional, organism-based
[25] = Oral bioavailability in dog at 1 mg/kg, iv and 5 mg/kg; type: ADME, organism-based, Canis lupus familiaris; settings: in vivo
[26] = AUC (0 to infinity) in dog at 1 mg/kg, iv; type: ADME, organism-based, Canis lupus familiaris; set-up: time infinity, dose 1 mg/kg, route intravenous; settings: plasma
[27] = Half life in rat at 5 mg/kg, po; type: ADME, organism-based; set-up: dose 5 mg/kg, route oral; settings: in vivo
[28] = Tmax in dog at 5 mg/kg, po; type: ADME, organism-based, Canis lupus familiaris; set-up: dose 5 mg/kg, route oral; settings: in vivo
[29] = Metabolic stability in human liver microsomes assessed as compound remaining after 60 mins; type: ADME; settings: read-out: Stability
[30] = Half life in dog hepatocytes; type: ADME, cell-based, Canis lupus familiaris, Hepatocyte
[31] = Cmax in dog at 5 mg/kg, po; type: ADME, organism-based, Canis lupus familiaris; set-up: dose 5 mg/kg, route oral; settings: in vivo
[32] = Thermodynamic solubility in aqueous buffer solution at pH 3; type: physicochemical
[33] = Metabolic stability in dog liver microsomes assessed as compound remaining after 60 mins; type: ADME, Canis lupus familiaris; settings: read-out: Stability
[34] = Tmax in rat at 5 mg/kg, po; type: ADME, organism-based; set-up: dose 5 mg/kg, route oral; settings: in vivo
[35] = Cmax in rat at 5 mg/kg, po; type: ADME, organism-based; set-up: dose 5 mg/kg, route oral; settings: in vivo
[36] = Volume of distribution at steady state in dog at 1 mg/kg, iv; type: ADME, organism-based, Canis lupus familiaris; set-up: dose 1 mg/kg, route intravenous; settings: in vivo, read-out: Vdss
[37] = Half life in dog at 5 mg/kg, po; type: ADME, organism-based, Canis lupus familiaris; set-up: dose 5 mg/kg, route oral; settings: in vivo
[38] = Oral bioavailability in rat at 5 mg/kg; type: ADME, organism-based; settings: in vivo
[39] = biological target: Tyrosine-protein kinase JAK2 (Homo sapiens, UniProt O60674); assay: Inhibition of JAK2 in human whole blood assessed as inhibition of GM-CSF-induced pSTAT5
[40] = Clearance in rat at 1 mg/kg, iv; type: ADME, organism-based; set-up: dose 1 mg/kg, route intravenous; settings: in vivo
[41] = Bioavailability in rat at 1 mg/kg, iv; type: ADME, organism-based; settings: in vivo

Cytochrome P450 2D6, sequence (P10635 whole entry): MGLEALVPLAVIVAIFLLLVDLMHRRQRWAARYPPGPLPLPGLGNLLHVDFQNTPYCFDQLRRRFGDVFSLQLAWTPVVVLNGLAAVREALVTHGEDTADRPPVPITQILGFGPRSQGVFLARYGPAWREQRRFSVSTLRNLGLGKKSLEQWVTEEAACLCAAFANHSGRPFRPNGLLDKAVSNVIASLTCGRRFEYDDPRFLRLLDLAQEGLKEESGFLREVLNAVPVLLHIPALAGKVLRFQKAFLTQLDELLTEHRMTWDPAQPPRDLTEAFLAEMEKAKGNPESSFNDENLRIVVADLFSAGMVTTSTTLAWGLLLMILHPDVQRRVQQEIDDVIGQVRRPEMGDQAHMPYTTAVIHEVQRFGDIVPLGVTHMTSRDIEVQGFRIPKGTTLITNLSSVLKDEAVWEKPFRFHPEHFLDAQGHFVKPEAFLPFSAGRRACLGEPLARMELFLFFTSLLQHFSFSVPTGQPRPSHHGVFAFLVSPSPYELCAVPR
Jak1 protein, sequence (Q5FVF5 whole entry): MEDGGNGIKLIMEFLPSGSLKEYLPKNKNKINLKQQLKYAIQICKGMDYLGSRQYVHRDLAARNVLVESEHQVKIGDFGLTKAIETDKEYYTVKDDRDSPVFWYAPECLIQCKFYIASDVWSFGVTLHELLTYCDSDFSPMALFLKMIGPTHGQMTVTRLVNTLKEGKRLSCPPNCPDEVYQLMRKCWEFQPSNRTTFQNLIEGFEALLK
Cytochrome P450 1A2, sequence (P05177 whole entry): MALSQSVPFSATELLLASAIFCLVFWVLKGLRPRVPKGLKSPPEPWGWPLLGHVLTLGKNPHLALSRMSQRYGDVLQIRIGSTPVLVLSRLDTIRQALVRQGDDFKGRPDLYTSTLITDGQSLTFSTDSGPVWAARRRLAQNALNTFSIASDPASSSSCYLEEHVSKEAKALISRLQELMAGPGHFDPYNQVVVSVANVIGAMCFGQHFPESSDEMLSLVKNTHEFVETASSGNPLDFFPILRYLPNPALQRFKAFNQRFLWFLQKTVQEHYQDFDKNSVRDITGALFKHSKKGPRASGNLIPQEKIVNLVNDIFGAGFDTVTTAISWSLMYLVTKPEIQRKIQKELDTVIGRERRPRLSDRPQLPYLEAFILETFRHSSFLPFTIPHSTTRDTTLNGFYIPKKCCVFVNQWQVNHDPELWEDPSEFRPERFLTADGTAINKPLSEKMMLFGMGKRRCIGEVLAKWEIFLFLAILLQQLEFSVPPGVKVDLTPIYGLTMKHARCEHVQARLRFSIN
Tyrosine-protein kinase JAK2, sequence (O60674 whole entry): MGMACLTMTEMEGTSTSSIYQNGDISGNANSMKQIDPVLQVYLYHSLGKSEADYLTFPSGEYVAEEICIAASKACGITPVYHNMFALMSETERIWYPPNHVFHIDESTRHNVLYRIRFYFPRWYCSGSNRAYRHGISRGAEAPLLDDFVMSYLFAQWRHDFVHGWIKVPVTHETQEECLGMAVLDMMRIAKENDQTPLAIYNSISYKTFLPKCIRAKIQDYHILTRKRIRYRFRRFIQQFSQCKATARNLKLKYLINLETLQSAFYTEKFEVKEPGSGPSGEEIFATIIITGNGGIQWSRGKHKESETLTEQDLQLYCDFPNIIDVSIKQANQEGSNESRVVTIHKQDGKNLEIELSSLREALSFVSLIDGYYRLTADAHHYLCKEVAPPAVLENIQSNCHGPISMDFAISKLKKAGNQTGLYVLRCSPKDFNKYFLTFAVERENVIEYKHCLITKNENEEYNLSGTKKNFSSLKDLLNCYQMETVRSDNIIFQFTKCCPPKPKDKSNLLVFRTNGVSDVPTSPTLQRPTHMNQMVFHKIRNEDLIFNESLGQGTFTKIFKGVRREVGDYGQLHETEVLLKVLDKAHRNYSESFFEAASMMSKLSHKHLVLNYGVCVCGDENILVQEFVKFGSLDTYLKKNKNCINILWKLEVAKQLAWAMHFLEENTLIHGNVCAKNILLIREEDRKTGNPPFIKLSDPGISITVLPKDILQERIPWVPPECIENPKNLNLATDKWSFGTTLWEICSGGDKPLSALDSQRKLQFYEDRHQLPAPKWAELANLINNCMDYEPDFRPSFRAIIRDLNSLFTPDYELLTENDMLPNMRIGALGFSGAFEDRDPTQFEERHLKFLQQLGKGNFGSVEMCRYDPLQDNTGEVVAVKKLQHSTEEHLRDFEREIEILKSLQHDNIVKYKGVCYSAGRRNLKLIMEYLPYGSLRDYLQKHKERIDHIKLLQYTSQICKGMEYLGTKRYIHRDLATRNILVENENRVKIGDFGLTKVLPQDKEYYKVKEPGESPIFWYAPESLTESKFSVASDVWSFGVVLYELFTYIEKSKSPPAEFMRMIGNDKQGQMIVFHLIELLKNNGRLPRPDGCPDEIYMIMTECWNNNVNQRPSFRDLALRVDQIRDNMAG
Cytochrome P450 2C19, sequence (P33261 whole entry): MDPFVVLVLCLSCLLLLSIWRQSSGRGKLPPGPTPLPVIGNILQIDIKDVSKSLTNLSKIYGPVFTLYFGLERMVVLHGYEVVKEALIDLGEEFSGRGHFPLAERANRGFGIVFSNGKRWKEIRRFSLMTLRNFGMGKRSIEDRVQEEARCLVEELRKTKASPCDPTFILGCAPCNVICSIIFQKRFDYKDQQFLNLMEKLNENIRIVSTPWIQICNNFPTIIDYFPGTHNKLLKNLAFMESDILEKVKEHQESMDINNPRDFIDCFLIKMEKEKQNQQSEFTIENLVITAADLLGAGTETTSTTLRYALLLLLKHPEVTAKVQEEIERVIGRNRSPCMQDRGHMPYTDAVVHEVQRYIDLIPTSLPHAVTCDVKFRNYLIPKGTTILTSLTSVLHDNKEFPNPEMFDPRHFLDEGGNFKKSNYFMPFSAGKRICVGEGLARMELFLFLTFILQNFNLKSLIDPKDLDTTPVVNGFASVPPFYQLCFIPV
Cytochrome P450 2C9, sequence (P11712 whole entry): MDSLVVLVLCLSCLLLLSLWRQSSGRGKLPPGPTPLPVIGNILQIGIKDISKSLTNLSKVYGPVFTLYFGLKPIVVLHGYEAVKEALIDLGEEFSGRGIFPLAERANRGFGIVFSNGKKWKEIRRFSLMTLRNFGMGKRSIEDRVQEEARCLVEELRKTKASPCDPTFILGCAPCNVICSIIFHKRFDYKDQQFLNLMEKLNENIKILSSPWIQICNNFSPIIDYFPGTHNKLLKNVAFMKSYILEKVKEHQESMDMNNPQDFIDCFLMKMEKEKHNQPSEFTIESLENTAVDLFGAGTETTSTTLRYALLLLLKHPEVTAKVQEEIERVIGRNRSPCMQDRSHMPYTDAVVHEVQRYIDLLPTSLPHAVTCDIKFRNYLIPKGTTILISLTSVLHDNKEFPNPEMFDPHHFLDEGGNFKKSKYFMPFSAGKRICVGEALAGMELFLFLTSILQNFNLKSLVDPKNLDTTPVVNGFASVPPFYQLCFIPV

Work on `O=C(Nc1nc2cccc(-c3ccc(CN4CCS(=O)(=O)CC4)cc3)n2n1)C1CC1` [FILGOTINIB] yielded an IC50 [1] greater than 70 µM, a half-life [2] of 7.5 h and an IC50 [3] greater than 70 µM. The remaining at 1 h [4] was 65%, the solubility kinetic [5] was greater than 85 µg/mL and the IC50 [6] was 0.029 µM. The Therm solubility [7] was 40 µg/mL, the AUC(0-inf) [8] was 13900 ng·h/mL and the half-life [9] was 1.6 h. It also gave a clearance [10] of 4.17 mL/min/kg, an AUC(0-inf) [11] of 1680 ng·h/mL and a Cmax [12] of 1140 ng/mL. For the same compound, the fraction unbound [13] was 0.711, the IC50 [14] was greater than 70 µM and the half-life [15] was 3.33 h. The half-life [16] was 3.33 h, the inhibition [17] was “Active” and the permeability [18] was 3.5 ×10⁻⁶ cm/s. For the same compound, the fraction unbound [19] was 0.682, the AUC(0-inf) [20] was 739 ng·h/mL and the inhibition [21] was “Active”. The fraction unbound [22] was 0.525, the IC50 [23] was greater than 70 µM and the inhibition [24] was “Dose-dependent effect”. It also gave a bioavailability [25] of 67%, an AUC(0-inf) [26] of 4100 ng·h/mL and a half-life [27] of 3.9 h. It also gave a Tmax [28] of 1.5 h, a remaining at 1 h [29] of 87% and a half-life [30] of 3.33 h. It also gave a Cmax [31] of 1810 ng/mL, a Therm solubility [32] of 243 µg/mL and a remaining at 1 h [33] of 45%. The Tmax [34] was 2.2 h, the Cmax [35] was 310 ng/mL and the Vd [36] was 1.7 L/kg. The half-life [37] was 5.2 h.
With `O=C(Nc1nc2cccc(-c3ccc(CN4CCOCC4)cc3)n2n1)C1CC1` the bioavailability [38] was 45%, the remaining at 1 h [4] was 38% and the solubility kinetic [5] was greater than 38 µg/mL. It also gave a half-life [9] of 0.74 h, an AUC(0-inf) [11] of 1440 ng·h/mL and an IC50 [39] greater than 30 µM. For the same compound, the clearance [40] was 35.3 mL/min/kg, the AUC(0-inf) [20] was 470 ng·h/mL and the fraction unbound [22] was 0.29. For the same compound, the half-life [27] was 0.92 h, the bioavailability [41] was 62% and the Tmax [34] was 0.33 h.
